How the values were obtained:
human mGluR5 = human mGluR5 (Homo sapiens, UniProt P41594); assay: Cell-based functional Ca2+ mobilization assay, potentiation of glutamate EC20 response (H10H cell-line); settings: H10H cell-line expressing recombinant human mGluR5; for Emax: in presence of glutamate EC20, normalized to maximal glutamate response; for EC50: potentiation in presence of glutamate EC20
Method in brief: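 H10H HEK293A cells expressing human mGluR5a were loaded with 2 μM fluo-4 AM in HBSS/20 mM HEPES/2.5 mM probenecid pH 7.4 and read on an FDSS 6000. Compound was added after a ~3 s baseline, followed 2.3 min later by an EC20 glutamate concentration; potentiation EC50 came from non-linear curve fitting.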

[1] = test system: amphetamine-induced hyperlocomotion; assay: Reversal of amphetamine-induced hyperlocomotion; assay type: in vivo, rat; settings: male Sprague-Dawley rats; test compound po in 20% HP-β-CD; amphetamine sulfate 1 mg/kg sc
Experimental: Locomotor activity was assessed as mean distance traveled (cm) in standard 16×16 photocell testing chambers measuring 43.2 cm (Length)×43.2 cm (Width)×30.5 cm (Height) (Med Associates, St. Albans, Vt.). Animals were habituated to individual activity chambers for at least 30 min prior to drug administration. Following administration of drug or vehicle, activity was recorded for a 90 minute time period. Data was expressed as the mean (±SEM) distance traveled recorded in 5 min intervals over the test period. The data was analyzed using repeated measures analysis of variance (ANOVA) followed by post-hoc testing using Dunnett's test, when appropriate. A difference was considered significant when p≦0.05. […]
The animals were habituated in Smart Open Field locomotor activity test chambers (Hamilton-Kinder, San Diego, Calif.) with 16×16 photobeams to automatically record locomotor activity for 30 min and then dosed with vehicle or test compound. […] At 60 min, all rats were injected subcutaneously with 1 mg/kg amphetamine or vehicle and then monitored for an additional 60 min. Animals are monitored for a total of 120 minutes. Data are expressed as changes in ambulation defined as total number of beam breaks per 5 min periods.
The data for the dose-response studies were analyzed by a between-group analysis of variance. […]

Sequence of human mGluR5 (P41594 21-1180 isoform P41594-2 limits assumed): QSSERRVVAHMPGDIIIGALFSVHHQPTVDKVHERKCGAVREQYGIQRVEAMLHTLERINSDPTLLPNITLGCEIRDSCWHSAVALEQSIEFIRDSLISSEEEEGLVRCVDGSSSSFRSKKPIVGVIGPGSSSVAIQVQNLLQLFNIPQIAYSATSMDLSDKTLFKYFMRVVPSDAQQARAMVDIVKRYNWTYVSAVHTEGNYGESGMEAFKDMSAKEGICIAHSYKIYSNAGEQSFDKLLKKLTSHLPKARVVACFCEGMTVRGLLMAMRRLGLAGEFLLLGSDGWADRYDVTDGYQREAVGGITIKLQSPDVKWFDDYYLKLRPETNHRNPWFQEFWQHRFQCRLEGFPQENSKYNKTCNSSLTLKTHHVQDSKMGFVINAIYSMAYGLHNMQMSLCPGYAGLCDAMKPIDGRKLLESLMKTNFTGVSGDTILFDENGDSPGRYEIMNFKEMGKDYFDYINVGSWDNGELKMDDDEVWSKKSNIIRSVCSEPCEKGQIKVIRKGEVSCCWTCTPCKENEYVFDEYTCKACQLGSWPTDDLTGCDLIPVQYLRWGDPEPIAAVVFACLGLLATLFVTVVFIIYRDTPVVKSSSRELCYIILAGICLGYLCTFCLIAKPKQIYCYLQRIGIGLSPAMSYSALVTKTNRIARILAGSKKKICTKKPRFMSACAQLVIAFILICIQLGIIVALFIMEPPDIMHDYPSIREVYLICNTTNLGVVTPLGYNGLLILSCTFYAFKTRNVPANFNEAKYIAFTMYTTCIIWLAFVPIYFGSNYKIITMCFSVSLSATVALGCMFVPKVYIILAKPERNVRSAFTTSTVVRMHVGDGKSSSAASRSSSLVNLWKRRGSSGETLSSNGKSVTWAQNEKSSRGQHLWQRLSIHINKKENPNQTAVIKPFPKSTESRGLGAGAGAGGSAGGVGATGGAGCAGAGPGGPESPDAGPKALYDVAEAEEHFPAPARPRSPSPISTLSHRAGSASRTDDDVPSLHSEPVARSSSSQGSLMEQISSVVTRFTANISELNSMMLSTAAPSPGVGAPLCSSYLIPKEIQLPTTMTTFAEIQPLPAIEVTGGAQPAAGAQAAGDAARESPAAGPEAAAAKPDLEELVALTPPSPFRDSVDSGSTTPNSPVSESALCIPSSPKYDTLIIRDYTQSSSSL

Structure (SMILES) | Emax (human mGluR5) | EC50 (human mGluR5) | melting point | reversal of amphetamine-induced hyperlocomotion [1]
O=C(c1ccc(F)cc1)N1CCc2nc(COc3ccccc3)oc2C1 [Example B1, 5-[(4-fluorophenyl)carbonyl]-2-(phenoxymethyl)-4,5,6,7-tetrahydro[1,3]oxazolo[5,4-c]pyridine] | 84% | 380 nM |  | Dose-dependent results for reversal of amphetamine-induced hyperlocomotion
N#Cc1cccc(C(=O)N2CCc3nc(COc4ccccc4)oc3C2)c1 [Example B43] | 64.5% | 295 nM | 130 °C | 
O=C(c1ccc(OC(F)(F)F)cc1)N1CCc2nc(COc3ccccc3)oc2C1 [Example B75] | 70% | 933 nM | > 300 °C | 
O=C(c1ccc(F)cc1F)N1CCc2nc(COc3cccc(F)c3)oc2C1 [Example B78] | 71% | 331 nM | 90.1 °C | 
O=C(c1ccc2ccccc2n1)N1CCc2nc(COc3ccccc3)oc2C1 [Example B79] | 59% | 1820 nM | 107.6 °C | 
Cn1cccc1C(=O)N1CCc2nc(COc3ccccc3)oc2C1 [Example B84] | 53% | 257 nM | 78.5 °C | 
Cc1nc(C(=O)N2CCc3nc(COc4ccccc4)oc3C2)c(C)o1 [Example B86] | 53% | > 10000 nM | 104.4 °C | 
N#Cc1ccc(C(=O)N2CCc3nc(COc4cccc(F)c4)oc3C2)cc1F [Example B89] | 61% | 2190 nM | 102.9 °C | 
O=C(c1ccc(F)nc1)N1CCc2nc(COc3ccccc3)oc2C1 [Example B94] | 68% | 1120 nM | 128.7 °C | 
N#Cc1cc(C(=O)N2CCc3nc(COc4cccc(F)c4)oc3C2)ccc1F [Example B97] | 81% | 1050 nM | 147.7 °C | 
O=C(c1cccc2c1OCCO2)N1CCc2nc(COc3ccccc3)oc2C1 [Example B99] | 57% | 776 nM | 55.5 °C | 
O=C(c1ccc2[nH]cnc2c1)N1CCc2nc(COc3ccccc3)oc2C1 [Example B156] | 14% | > 30200 nM | 198.1 °C | 

Second part, led by results:

Emax (human mGluR5) | EC50 (human mGluR5) | melting point | Structure (SMILES) | reversal of amphetamine-induced hyperlocomotion [1]
67% | 2950 nM | 113.1 °C | O=C(c1ccc(F)cn1)N1CCc2nc(COc3ccccc3)oc2C1 [Example B40] | 
58% | 3090 nM | 132.2 °C | N#Cc1ccc(C(=O)N2CCc3nc(COc4ccccc4)oc3C2)cc1 [Example B49] | 
49% | 3720 nM | 98.3 °C | O=C(c1cncc(F)c1)N1CCc2nc(COc3ccccc3)oc2C1 [Example B65] | 
49% | 3020 nM | > 300 °C | O=C(c1cncc(F)c1)N1CCc2nc(COc3cccc(F)c3)oc2C1 [Example B67] | 
56% | > 10000 nM | 137.2 °C | Cc1ccc(OCc2nc3c(o2)CN(C(=O)c2ccc(F)cc2)CC3)cc1 [Example B70] | 
21% | 331 nM | 158.2 °C | Cc1oncc1C(=O)N1CCc2nc(COc3ccccc3)oc2C1 [Example B71] | 
75% | 708 nM | 121.3 °C | O=C(c1ccc2c(c1)OCO2)N1CCc2nc(COc3ccccc3)oc2C1 [Example B76] | 
67% | 501 nM | 102.9 °C | CN(C)c1cccc(C(=O)N2CCc3nc(COc4ccccc4)oc3C2)c1 [Example B83] | 
57% | 219 nM | > 300 °C | N#Cc1cccc(C(=O)N2CCc3nc(COc4cccc(F)c4)oc3C2)c1 [Example B85] | 
53% | 1780 nM | 92.5 °C | O=C(c1ccno1)N1CCc2nc(COc3ccccc3)oc2C1 [Example B88] | 
64% | > 10000 nM | 130.8 °C | O=C(c1cnn2ccccc12)N1CCc2nc(COc3ccccc3)oc2C1 [Example B95] | 
73% | 741 nM | 128.2 °C | N#Cc1cc(C(=O)N2CCc3nc(COc4ccccc4)oc3C2)ccc1F [Example B98] | 
67% | 3310 nM | 109.8 °C | O=C(c1ncc(F)cc1F)N1CCc2nc(COc3cccc(F)c3)oc2C1 [Example B101] | 
40% | > 10000 nM | 78.9 °C | O=C(c1ccc(F)cc1)N1CCc2nc(COc3cccc(C(F)(F)F)c3)oc2C1 [Example B127] | 
44% | > 10000 nM | > 300 °C | O=C(c1ccnnc1)N1CCc2nc(COc3ccccc3)oc2C1 [Example B150] | 
